Results on three compounds are retold here after patent publication US9365540B2, “Benzimidazole derivatives as MCH receptor antagonists” (Takeda Pharmaceutical Company Limited, priority 2012, dated 2016).

The target of one data set is T1, HERG (Homo sapiens, UniProt Q12809).
T1 construct: host or cells: HERG.T.HEK (HEK cells, G418 selection)
As to the kind of experiment: HERG inhibitory activity, whole-cell patch clamp. The data set is classed as cell-based. The conditions noted are these: 10 μM test compound; HERG.T.HEK cells; peak tail current. The source says:
Evaluation of HERG Inhibitory Activity
MEM medium, MEM nonessential amino acid solution, sodium pyruvate solution and G418 sulfate solution (Geneticin) were purchased from Invitrogen Corporation (Carlsbad, Calif.). Bovine serum albumin (BSA, Fatty Acid Free) was a product of Wako Pure Chemical Industries, Ltd. (Osaka, Japan). Fetal calf serum (FCS) was a product of Trau Scientific Ltd. (Melbourne, Australia).
As HERG-expressing cell HERG.T.HEK, the cell obtained from Wisconsin ALUMNI Research Foundation was used. HERG.T.HEK was maintained and passaged at 37° C. in the presence of 5% CO2 using an MEM medium containing 10% FCS, 1 mM MEM nonessential amino acid, 1 mM sodium pyruvate and 500 μg/ml Geneticin.
80-90% confluent cells were collected by a trypsin treatment and plated on an IVF dish (Falcon, Franklin Lakes, N.J.). […] A preliminary stimulation was applied and the HERG electric current value (peak tail current) was measured when the electric current waveform was stabilized.
For measurement of the HERG electric current with addition of the test compound, the cells were first perfused with the extracellular fluid and, when the waveform was stabilized, the cells were perfused with an extracellular fluid containing 10 μM of a test compound. When the electric current waveform was stabilized under respective perfuse conditions, the HERG electric current was measured.
The HERG electric current inhibitory rate (%) of the test compound was calculated with the HERG electric current value without addition of the test compound as 100%.

The target in data set [1] is T2, human MCH receptor 1 (MCHR1) (Homo sapiens, UniProt Q99705).
T2 construct: expressed in transfected cells; host or cells: CHO cell clone 57 (membrane fraction)
T2 sequence (Q99705 whole entry): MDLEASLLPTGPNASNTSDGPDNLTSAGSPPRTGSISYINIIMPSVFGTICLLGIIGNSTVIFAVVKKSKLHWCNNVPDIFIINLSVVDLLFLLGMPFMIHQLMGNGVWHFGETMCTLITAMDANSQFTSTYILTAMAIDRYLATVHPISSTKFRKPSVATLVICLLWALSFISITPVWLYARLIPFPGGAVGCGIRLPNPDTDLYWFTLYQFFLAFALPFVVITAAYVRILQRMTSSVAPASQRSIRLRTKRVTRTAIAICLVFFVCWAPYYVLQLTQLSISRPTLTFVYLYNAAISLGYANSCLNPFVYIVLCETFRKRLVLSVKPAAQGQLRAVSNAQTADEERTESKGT
Kind of data set: human MCH receptor 1 (MCHR1) competitive binding assay with [125I]-MCH(4-19). The conditions noted are these: test compound 0.1 μM, human MCHR1-expressing CHO cell membrane fraction, read-out: Binding inhibition rate % (0.1 μM). In outline: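 Membranes from CHO cells expressing human MCHR1 incubated with [125I]-MCH(4-19) and test compound in 20 mM Tris-HCl pH 7.5/5 mM EDTA with protease inhibitors, 1 hr at room temperature. Bound radioactivity collected on PEI-treated GF/C filters; % inhibition at 0.1 μM compound, nonspecific binding set with cold MCH(1-19).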

T1 sequence (Q12809 whole entry): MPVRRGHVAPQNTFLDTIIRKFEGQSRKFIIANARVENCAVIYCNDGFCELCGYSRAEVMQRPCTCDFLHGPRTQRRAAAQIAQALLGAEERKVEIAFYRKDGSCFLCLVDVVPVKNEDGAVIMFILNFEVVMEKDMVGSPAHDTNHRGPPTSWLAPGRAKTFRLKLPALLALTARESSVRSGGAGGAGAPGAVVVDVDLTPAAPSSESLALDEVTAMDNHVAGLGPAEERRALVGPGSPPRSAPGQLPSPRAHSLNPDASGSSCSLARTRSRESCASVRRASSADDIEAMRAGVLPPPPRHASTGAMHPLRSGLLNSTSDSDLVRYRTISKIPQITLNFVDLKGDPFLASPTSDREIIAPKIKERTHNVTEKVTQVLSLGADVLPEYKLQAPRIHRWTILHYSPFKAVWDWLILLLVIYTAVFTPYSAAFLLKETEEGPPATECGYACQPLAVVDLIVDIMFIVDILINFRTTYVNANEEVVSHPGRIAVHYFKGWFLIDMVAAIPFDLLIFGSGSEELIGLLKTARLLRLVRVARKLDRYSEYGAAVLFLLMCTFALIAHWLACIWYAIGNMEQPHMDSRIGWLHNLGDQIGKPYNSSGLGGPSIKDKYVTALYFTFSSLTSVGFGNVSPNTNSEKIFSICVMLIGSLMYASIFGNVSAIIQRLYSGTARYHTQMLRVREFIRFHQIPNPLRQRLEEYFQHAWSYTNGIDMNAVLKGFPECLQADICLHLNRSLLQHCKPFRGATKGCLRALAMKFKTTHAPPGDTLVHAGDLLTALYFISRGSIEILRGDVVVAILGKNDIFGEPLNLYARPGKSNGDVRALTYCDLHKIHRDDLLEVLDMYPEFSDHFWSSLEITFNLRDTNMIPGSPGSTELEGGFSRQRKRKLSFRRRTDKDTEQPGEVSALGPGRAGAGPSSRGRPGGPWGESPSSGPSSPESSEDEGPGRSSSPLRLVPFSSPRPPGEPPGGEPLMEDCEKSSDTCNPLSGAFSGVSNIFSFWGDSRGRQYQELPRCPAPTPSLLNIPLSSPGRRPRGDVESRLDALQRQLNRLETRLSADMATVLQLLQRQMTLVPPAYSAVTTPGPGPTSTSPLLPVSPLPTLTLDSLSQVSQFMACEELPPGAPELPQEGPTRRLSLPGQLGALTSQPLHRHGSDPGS

Turning to `Cn1c(C2CC2)nc2ccc(-n3ccc(OCc4ccc(F)cc4)cc3=O)cc21` [Example 2, 1-(2-Cyclopropyl-1-methyl-1H-benzimidazol-6-yl)-4-((4-fluorobenzyl)oxy)pyridin-2(1H)-one], the “HERG inhibitory action (%)” value at HERG turned out to be 27.3%. Further, in data set [1], the inhibition at 0.1 µM was 80%.
`CCc1nc2ccc(-n3ccc(OCc4ccc(F)cc4)cc3=O)cc2n1C` [Example 63, 1-(2-Ethyl-1-methyl-1H-benzimidazol-6-yl)-4-((4-fluorobenzyl)oxy)pyridin-2(1H)-one]: on HERG, the “HERG inhibitory action (%)” value was determined as 23.0%. In addition, the inhibition at 0.1 µM in data set [1] was determined as 74%.
For `Cc1nc2ccc(-n3ccc(OCc4ccc(F)cc4)cc3=O)cc2n1C` [Example 254, 1-(1,2-Dimethyl-1H-benzimidazol-6-yl)-4-((4-fluorobenzyl)oxy)pyridin-2(1H)-one], in that order: 26.4% and 57%.
